Where a SMILES comes first, the peptide text is derived from it. The star is where a group is joined. Cbz = O=C(OCc1ccccc1)*; CH2F = FC*
Assays:
[1] = system: isolated mouse neonatal cardiomyocytes; experiment: Live/dead assay in cultured neonatal cardiomyocytes; type: cell-based; settings: 48 h; n=3
Protocol: (§1) Ventricular cardiomyocytes were isolated using previously published protocols (Collesi et al. 2008). Briefly, ventricles were dissected from P1 pups, minced in CBFHH (calcium and bicarbonate-free Hanks with Hepes) buffer. Subsequently, the minced ventricles were digested in CBFHH buffer containing 1.75 mg/ml of trypsin and 20 μg/ml of DNaseII (Sigma-Aldrich). Cells were preplated for 1 h (3 times) onto 100-mm primaria (Corning Life Sciences) dishes in culture medium containing 10% serum to remove fibroblasts. Unattached cardiomyocytes were plated at a desired density. Using this protocol, we routinely obtained >85-90% cardiomyocytes (confirmed using immunohistochemical techniques and an alpha-actinin antibody). […] For apoptotic pathway inhibition, neonatal cardiomyocytes were treated with cell permeable small molecule inhibitor (Z-VAD-FMK; R&D Systems) with or with SAG. For the EdU incorporation assay, cardiomyocytes were incubated with 20 μM EdU for 48 h and fixed using 4% PFA for 10 min at room temperature. P7 cardiomyocytes were isolated using a similar protocol as that of the P1 cardiomyocyte isolation protocol with modifications including the perfusion based tissue digestion using collagenase type-2 enzyme solution. >95% rod-shaped binucleated cardiomyocytes were routinely obtained using this protocol. […]

P7 cardiomyocytes = experiment: Proliferation of isolated P7 cardiomyocytes (EdU incorporation, time-lapse microscopy); type: cell-based, mouse
Protocol: Ventricular cardiomyocytes were isolated using previously published protocols (Collesi et al. 2008). Briefly, ventricles were dissected from P1 pups, minced in CBFHH (calcium and bicarbonate-free Hanks with Hepes) buffer. Subsequently, the minced ventricles were digested in CBFHH buffer containing 1.75 mg/ml of trypsin and 20 μg/ml of DNaseII (Sigma-Aldrich). Cells were preplated for 1 h (3 times) onto 100-mm primaria (Corning Life Sciences) dishes in culture medium containing 10% serum to remove fibroblasts. Unattached cardiomyocytes were plated at a desired density. Using this protocol, we routinely obtained >85-90% cardiomyocytes (confirmed using immunohistochemical techniques and an alpha-actinin antibody). […] For apoptotic pathway inhibition, neonatal cardiomyocytes were treated with cell permeable small molecule inhibitor (Z-VAD-FMK; R&D Systems) with or with SAG. For the EdU incorporation assay, cardiomyocytes were incubated with 20 μM EdU for 48 h and fixed using 4% PFA for 10 min at room temperature. P7 cardiomyocytes were isolated using a similar protocol as that of the P1 cardiomyocyte isolation protocol with modifications including the perfusion based tissue digestion using collagenase type-2 enzyme solution. >95% rod-shaped binucleated cardiomyocytes were routinely obtained using this protocol. For qPCR and FACS analysis, cells were harvested using trypsin and processed for further analysis. For the time-lapse microscopic experiments, isolated P7 mCherry+ cardiomyocytes were plated on glass-bottom petri dish coated with fibronectin. After 2 h of attachment, media was changed containing DMSO or SAG and the petri dish was placed in the environmental chamber for imaging. Adult cardiomyocyte isolation was performed (Mahmoud et al., 2013). Briefly, the adult heart tissue was dissociated by perfusion of a collagenase type 2 enzyme solution. Isolated cardiomyocytes were cultured in 1% serum media in the presence of DMSO or SAG. For the EdU incorporation assay, cardiomyocytes were incubated with 20 μM EdU for 48 h and fixed using 4% PFA for 10 min at room temperature.

[2] = system: isolated mouse neonatal cardiomyocytes; experiment: Proliferation of cultured neonatal (P1) cardiomyocytes (cell number, EdU incorporation, Ki67, FACS); type: cell-based; settings: for EdU+ cardiomyocytes: pan-caspase inhibition experiment, 48 h, SAG with/without pan-caspase inhibition; for Ki67+-Actinin+ cells: versus DMSO control
Protocol: Immunohistochemistry was performed on cryosections (10 μm thick) using standard procedures (Singh et al., 2012; Singh et al. 2007; Adhikari et al., 2011; Singh et al., 2010). Briefly, sections were rehydrated, permeabilized and blocked with 10% normal donkey serum (NDS), 0.1% Triton X-100 in PBS at room temperature and incubated overnight at 4° C. with primary antibodies: α-actinin (Abeam; 1:300), desmin (Novus biologicals; 1:300), Shh (Santa Cruz Biotechnology; 1:200), endomucin (Abeam; 1:100), SM22 (Abeam; 1:400), α-phospho-Histone H3 (Ser10) (Millipore; 1:100), Ki67 (Abcam; 1:200), PCNA (Santa Cruz Biotechnology; 1:100), Mef2a (Santa Cruz Biotechnology; 1:100), Smoothened (Abcam; 1:200), Nkx 2-5 (Santa Cruz Biotechnology; 1:100) and GFP (ThermoFisher Scientific; 1:300) sera. Sections were rinsed and incubated with combinations of secondary antibodies (1:400) including Alexa 488, Alexa 594, Cy3 and Cy5 (Jackson ImmunoResearch Laboratories). EdU staining was performed using the EdU labeling kit (Life Technologies)
Ventricular cardiomyocytes were isolated using previously published protocols (Collesi et al. 2008). Briefly, ventricles were dissected from P1 pups, minced in CBFHH (calcium and bicarbonate-free Hanks with Hepes) buffer. Subsequently, the minced ventricles were digested in CBFHH buffer containing 1.75 mg/ml of trypsin and 20 μg/ml of DNaseII (Sigma-Aldrich). Cells were preplated for 1 h (3 times) onto 100-mm primaria (Corning Life Sciences) dishes in culture medium containing 10% serum to remove fibroblasts. Unattached cardiomyocytes were plated at a desired density. […] After 12 h, the culture medium was changed and cells were subjected to the different treatments (SAG; 4 μg/mL and CyA; 5 μg/ml) and analyzed. For apoptotic pathway inhibition, neonatal cardiomyocytes were treated with cell permeable small molecule inhibitor (Z-VAD-FMK; R&D Systems) with or with SAG. For the EdU incorporation assay, cardiomyocytes were incubated with 20 μM EdU for 48 h and fixed using 4% PFA for 10 min at room temperature. […] For qPCR and FACS analysis, cells were harvested using trypsin and processed for further analysis. […] For the EdU incorporation assay, cardiomyocytes were incubated with 20 μM EdU for 48 h and fixed using 4% PFA for 10 min at room temperature.

HH signaling [3] = experiment: qPCR of HH pathway and cell cycle transcripts in neonatal cardiomyocytes; type: cell-based, mouse; settings: for Gli1 expression (qPCR) / Gli3 expression (qPCR) / Mycn transcripts (qPCR): isolated mouse neonatal cardiomyocytes
Protocol: (§2) RNA isolation and qPCR analysis from newt tissue was performed as previously described^5. For chamber based qPCR analysis, the regenerating heart including BA, AT and ventricle was harvested and rinsed in PBS to remove blood cells. Subsequently, the BA, AT and ventricle were collected from heart tissue (n=12) for further processing. RNA isolation from cultured cardiomyocytes was performed using a standard protocol as per the manufacturer's instructions. Total RNA was isolated using the miRVANA kit (Ambion) and cDNA was made using SuperScript […] kit (Invitrogen).
Briefly, ventricles were dissected from P1 pups, minced in CBFHH (calcium and bicarbonate-free Hanks with Hepes) buffer. […] Cells were preplated for 1 h (3 times) onto 100-mm primaria (Corning Life Sciences) dishes in culture medium containing 10% serum to remove fibroblasts. Unattached cardiomyocytes were plated at a desired density. […] For apoptotic pathway inhibition, neonatal cardiomyocytes were treated with cell permeable small molecule inhibitor (Z-VAD-FMK; R&D Systems) with or with SAG. For the EdU incorporation assay, cardiomyocytes were incubated with 20 μM EdU for 48 h and fixed using 4% PFA for 10 min at room temperature. […] For qPCR and FACS analysis, cells were harvested using trypsin and processed for further analysis. For the time-lapse microscopic experiments, isolated P7 mCherry+ cardiomyocytes were plated on glass-bottom petri dish coated with fibronectin. After 2 h of attachment, media was changed containing DMSO or SAG and the petri dish was placed in the environmental chamber for imaging. […] Briefly, the adult heart tissue was dissociated by perfusion of a collagenase type 2 enzyme solution. Isolated cardiomyocytes were cultured in 1% serum media in the presence of DMSO or SAG. For the EdU incorporation assay, cardiomyocytes were incubated with 20 μM EdU for 48 h and fixed using 4% PFA for 10 min at room temperature.

day-60 hiPSC-CMs = experiment: Proliferation of day-60 hiPSC-derived cardiomyocytes (EdU, Ki67); type: cell-based, human; settings: 48 h, n=3, p<0.01
Protocol: The media was then changed with RPMI/B27 minus insulin and BMP4 and FGF from d1-d2. On d3, the medium was changed with RPMI/B27 minus insulin and IWP-4. The differentiated cells were maintained in RPMI/B27 with insulin media from d5-d60. […] Immunohistochemical analysis was performed as described previously.

[4] = system: adult mouse cardiomyocytes; experiment: EdU incorporation in isolated adult cardiomyocytes; type: cell-based; settings: n=3, p<0.05
Protocol: as §1

HH signaling [5] = experiment: qPCR in P7 cardiomyocytes; type: cell-based, mouse; settings: P7-isolated cardiomyocytes
Protocol: as §2
Ventricular cardiomyocytes were isolated using previously published protocols (Collesi et al. 2008). Briefly, ventricles were dissected from P1 pups, minced in CBFHH (calcium and bicarbonate-free Hanks with Hepes) buffer. Subsequently, the minced ventricles were digested in CBFHH buffer containing 1.75 mg/ml of trypsin and 20 μg/ml of DNaseII (Sigma-Aldrich). Cells were preplated for 1 h (3 times) onto 100-mm primaria (Corning Life Sciences) dishes in culture medium containing 10% serum to remove fibroblasts. Unattached cardiomyocytes were plated at a desired density. Using this protocol, we routinely obtained >85-90% cardiomyocytes (confirmed using immunohistochemical techniques and an alpha-actinin antibody). […]

regenerating newt heart = settings: continuous blockade of HH signals, CyA 2 μg/mL in aquarium water daily; n=8, p<0.05
Protocol: Adult red-spotted newts, Notophthalmus viridescens, were housed as described in Singh et al. (2012). For heart resection surgery, adult newts were anesthetized in 0.1% MS-222 solution for 10 min. Each newt was placed in a supine position under a stereomicroscope. The outer skin was wiped using 70% ethanol-chlorhexidine solution and the pericardial sac was opened to expose the heart. The apex of the ventricle was resected (˜25-30%) using iricdectomy scissors. Following resection, the blood flow was controlled by the formation of the blood clot. The resected heart was maneuvered carefully into the pericardial sac and sutured using 8.0 ethilon monofilament sutures. Following resection surgery, newts were allowed to recover in an isolated tank containing sulfmerazine antibiotic solution and later placed in their designated aquariums. The resected ventricular mass was measured using a Sartorius weighing balance. […] CyA-mediated inhibition of HH signaling was achieved by daily treatment of the resected newts at 2 μg/mL diluted in the aquarium water. At specified time periods, animals were sacrificed and tissues were collected for further processing. For EdU labelling, the resected newts were injected intraperitoneally (i.p.) with 100 μg/gm of EdU for a 7 day period prior to sacrifice and harvested for immunohistochemical analysis. […]

Compound: CNC1CCC(N(Cc2cccc(-c3ccncc3)c2)C(=O)c2sc3ccccc3c2Cl)CC1 (stereo not drawn) [SAG]
- live/dead assay versus control [1]: No difference
- α-Actinin+-EdU+ cardiomyocytes (P7 cardiomyocytes; P7 cardiomyocytes, n=4): increased number
- increase in number of mono-, bi-, and multi-nucleated cardiomyocytes (P7 cardiomyocytes; P7 cardiomyocytes, n=4, p<0.05): ~3 fold
- dividing αMHC-mCherry+ P7 cardiomyocytes (time-lapse microscopy) (P7 cardiomyocytes; none found in DMSO control): multiple dividing
- increase in α-Actinin+-EdU+ cells compared to controls ([2]; SAG 4 μg/mL, EdU 48 h, n=4, p<0.05): 2.5 fold
- increased cardiomyocyte proliferation, FACS analysis of α-Actinin+-EdU+ population ([2]; n=3, p<0.05): 2.5 fold
- EdU+ cardiomyocytes ([2]; n=3): comparable increase
- cardiomyocyte proliferation (α-Actinin+-EdU+) ([2]; serum-free conditions, n=3, p<0.05): increased cardiomyocyte proliferation
- number of cultured neonatal cardiomyocytes ([2]; various concentrations): dose-dependent increase
- Ki67+-Actinin+ cells ([2]; n=3): increased number
- Ptc1, Ccnd2, Ccnd1 and Ccne1 transcripts (qPCR) (HH signaling [3]; HH signaling activation): induction of cell cycle kinetics
- Gli1 expression (qPCR) (HH signaling [3]): induced
- Gli3 expression (qPCR) (HH signaling [3]): reduced
- Mycn transcripts (qPCR) (HH signaling [3]): increased
- levels of caspase-3 transcripts (qPCR) (HH signaling [3]; versus control, data not shown): unaltered
- increased α-Actinin+-EdU+ cardiomyocytes (day-60 hiPSC-CMs): 2 fold
- increased α-Actinin+-Ki67+ cardiomyocytes (day-60 hiPSC-CMs): ~3 fold
- α-Actinin+-EdU+ cardiomyocytes [4]: increased number
- expression of Cdkn1b (p27) (qPCR) (HH signaling [5]): reduced expression
- expression of Ptc1, Ccne1 and Ccnd2 (qPCR) (HH signaling [5]): increased expression

Compound: CC1=C2C[C@H]3[C@@H](CC=C4C[C@@H](O)CC[C@@]43C)[C@@H]2CC[C@]12O[C@@H]1C[C@H](C)CN[C@H]1[C@H]2C [CyA, Cyclopamine]
- Ki67+-Actinin+ cells ([2]; n=3): not detected
- Gli1 expression (qPCR) (HH signaling [3]): reduced
- Gli3 expression (qPCR) (HH signaling [3]): increased
- Mycn transcripts (qPCR) (HH signaling [3]): reduced expression
- heart regeneration following injury (regenerating newt heart): complete ablation of heart regeneration and induction of scar formation

Compound: c1ccc2c(Oc3nc(Nc4ccc(N5CCOCC5)cc4)c4ncn(C5CCCCC5)c4n3)cccc2c1 [Purmorphamine]
- cardiomyocyte proliferation (Actinin+-EdU+, immunohistochemical images) ([2]; isolated neonatal cardiomyocytes pulsed with EdU, FIG. 20): promotes cardiomyocyte proliferation

Compound: COC(=O)C[C@H](NC(=O)[C@H](C)NC(=O)[C@@H](NC(=O)OCc1ccccc1)C(C)C)C(=O)CF [pan-caspase inhibitor, Z-VAD-FMK] (Cbz-Val-Ala-Asp(OMe)-CH2F)
- EdU+ cardiomyocytes ([2]; n=3): did not result in any change

— patent US11725217B2, “Methods to enhance myocardial regeneration and/or repair” (Regents of the University of Minnesota, priority 2018, dated 2023)
